This note sets out measurements from patent publication US20220144850A1, “INDOLO HEPTAMYL OXIME ANALOGUE AS PARP INHIBITOR” (Chia Tai Tianqing Pharmaceutical Group Co., Ltd., priority 2019, published 2022).

Assay [1] concerns BRCA-wild type MDA-MB-231 cells. In words: Anti-proliferation experiment on MDA-MB-231 CTG cells. It counts as cell-based. Particulars: Homo sapiens, MDA-MB-231, 72 h; 3 days incubation, CellTiter-Glo. Here is the method: Experimental Example 3: Anti-Proliferation Experiment on MDA-MB-231 CTG Cells
Experimental materials: test compounds; R DMEM medium; fetal bovine serum; penicillin/streptomycin antibiotic; MDA-MB-231 cell line; Envision multi-label analyzer.
MDA-MB-231 cells were seeded in a white 96-well plate by adding 80 μL of cell suspension (containing 5000 MDA-MB-231 cells) to each well. The cell plate was incubated in a CO2 incubator overnight.
Eight concentration points were set for each compound, test compounds were serially 3-fold diluted to the 8th concentration with a multichannel pipette, i.e. from 2 mM to 920 nM, and a duplicate well experiment was performed. 78 μL of medium was added to a intermediate plate, 2 μL of each of serially diluted compounds was transferred to corresponding wells of the intermediate plate, and after mixing, the mixture was transferred to the cell plate at 20 μL per well. The cell plate was incubated in a CO2 incubator for 3 days. Another cell plate was provided for reading signal values on the day of compound addition and these signal values were used as Max values in data analysis. Promega CellTiter-Glo was added to this cell plate at 25 μL per well and the luminescence signals were stabilized by incubation for 10 min at room temperature. Readings were taken using a PerkinElmer Envision multi-marker analyzer.
Promega CellTiter-Glo was added to the cell plate at 25 μL per well and the luminescence signals were stabilized by incubation for 10 min at room temperature. Readings were taken using a PerkinElmer Envision multi-marker analyzer.
Data analysis: the original data was converted to inhibition using the equation (sample−Min)/(Max−Min)×100%, and the IC50 value was then curve fitted using four parameters (obtained from the “log(inhibitor) vs. response-variable slope” model in GraphPad Prism). Table 1 provides the inhibitory activity of the compounds disclosed herein against MDA-MB-231 cell proliferation.
On the technique in general: ATP-based viability assays read luminescence as a measure of living cells.

The target in another assay is T1, CYP3A4-M (Homo sapiens, UniProt P08684).
T1 construct: a human liver microsome solution; from tissue; host or cells: human liver microsomes
Kind of assay: Inhibition against cytochrome P450 isoenzyme, human liver microsomes. The class given is in vitro ADME. On the procedure: (§1) Experimental Example 6: Study on Inhibition Against Cytochrome P450 Isoenzyme
(§2) The inhibition of the test compounds against different subtypes of the human cytochrome P450 isoenzyme was determined. Test compounds, a standard inhibitor (100×final concentration) and a mixed substrate working solution were prepared; the microsomes frozen in a refrigerator at −80° C. were taken out and thawed. 2 μL of a solution of the test compound and the standard inhibitor was added to corresponding wells, and 2 μL of a corresponding solvent was added to a non-inhibitor control (NIC) well and a blank control (Blank) well; then, 20 μL of a solution of mixed substrate was added to corresponding wells except for the Blank well (adding 20 μL of PB to the Blank well); a human liver microsome solution (marking the date after use and immediately putting back to a refrigerator) was prepared and then added to all wells at 158 μL per well; the sample plate was put into a 37° C. water bath for pre-incubation, and then a coenzyme factor (NADPH) solution was prepared; after 10 min, the NADPH solution was added to all the wells at 20 μL per well, and the sample plate was shaken to mix the mixture well and then incubated in a 37° C. water bath for 10 min; at corresponding time points, 400 μL of cold acetonitrile solution (internal standard: 200 ng/mL tolbutamide and labetalol) was added to stop the reaction; after being mixed well, the mixture in the sample plate was centrifuged at 4,000 rpm for 20 min to precipitate proteins; 200 μL of supernatant was collected and added into 100 μL of water, and the mixture was mixed well and then assayed by LC/MS/MS.
A general note: Microsomes from liver hold many membrane-bound enzymes, among them those of drug oxidation.

The target of a further assay is T2, CYP1A2 (Homo sapiens, UniProt P05177).
T2 construct: a human liver microsome solution; from tissue; host or cells: human liver microsomes
T2 sequence (P05177 1-516): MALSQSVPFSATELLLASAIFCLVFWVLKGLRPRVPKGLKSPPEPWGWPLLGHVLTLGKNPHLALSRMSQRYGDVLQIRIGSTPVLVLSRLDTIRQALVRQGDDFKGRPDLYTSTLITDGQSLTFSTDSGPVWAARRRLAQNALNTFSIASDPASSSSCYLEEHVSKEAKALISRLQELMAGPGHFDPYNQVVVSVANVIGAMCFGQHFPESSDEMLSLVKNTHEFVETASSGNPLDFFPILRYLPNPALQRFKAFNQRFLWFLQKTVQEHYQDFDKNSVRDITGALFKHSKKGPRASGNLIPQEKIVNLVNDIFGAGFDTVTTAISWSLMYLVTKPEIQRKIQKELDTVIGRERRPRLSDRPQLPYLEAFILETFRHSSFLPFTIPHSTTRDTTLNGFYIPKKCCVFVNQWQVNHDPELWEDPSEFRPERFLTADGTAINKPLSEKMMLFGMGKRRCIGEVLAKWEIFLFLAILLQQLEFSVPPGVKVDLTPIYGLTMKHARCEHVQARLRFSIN
Described as above. The class given is in vitro ADME. Here is the method: as §1, §2

In a further assay the target is T3, CYP2D6 (Homo sapiens, UniProt P10635).
T3 construct: a human liver microsome solution; from tissue; host or cells: human liver microsomes
The description is as above. The class given is in vitro ADME. On the procedure: as §1, §2

The target in the next assay is T4, CYP2C9 (Homo sapiens, UniProt P11712).
T4 construct: a human liver microsome solution; from tissue; host or cells: human liver microsomes
The description is as above. It counts as in vitro ADME. On the procedure:
as §1, §2

In the next assay the target is T5, CYP2C19 (Homo sapiens, UniProt P33261).
T5 construct: a human liver microsome solution; from tissue; host or cells: human liver microsomes
Described as above. The class given is in vitro ADME. Here is the method:
as §1, §2

One may read the IC50 as the concentration that gives 50% inhibition. Low readings indicate greater potency, high ones weaker potency.

T5 sequence (P33261 whole entry): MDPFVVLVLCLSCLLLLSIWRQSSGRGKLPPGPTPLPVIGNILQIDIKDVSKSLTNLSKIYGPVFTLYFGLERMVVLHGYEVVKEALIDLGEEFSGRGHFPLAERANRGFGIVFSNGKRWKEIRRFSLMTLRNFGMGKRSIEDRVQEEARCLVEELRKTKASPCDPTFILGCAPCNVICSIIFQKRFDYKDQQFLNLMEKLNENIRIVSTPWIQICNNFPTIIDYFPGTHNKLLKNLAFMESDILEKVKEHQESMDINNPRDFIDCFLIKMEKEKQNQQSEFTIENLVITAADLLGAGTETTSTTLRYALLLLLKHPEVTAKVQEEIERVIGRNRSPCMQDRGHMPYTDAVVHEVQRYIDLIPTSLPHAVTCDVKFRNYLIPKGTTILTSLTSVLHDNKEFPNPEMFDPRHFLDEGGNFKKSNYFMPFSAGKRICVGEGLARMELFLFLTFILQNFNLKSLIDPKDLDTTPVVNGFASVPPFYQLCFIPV
T4 sequence (P11712 whole entry): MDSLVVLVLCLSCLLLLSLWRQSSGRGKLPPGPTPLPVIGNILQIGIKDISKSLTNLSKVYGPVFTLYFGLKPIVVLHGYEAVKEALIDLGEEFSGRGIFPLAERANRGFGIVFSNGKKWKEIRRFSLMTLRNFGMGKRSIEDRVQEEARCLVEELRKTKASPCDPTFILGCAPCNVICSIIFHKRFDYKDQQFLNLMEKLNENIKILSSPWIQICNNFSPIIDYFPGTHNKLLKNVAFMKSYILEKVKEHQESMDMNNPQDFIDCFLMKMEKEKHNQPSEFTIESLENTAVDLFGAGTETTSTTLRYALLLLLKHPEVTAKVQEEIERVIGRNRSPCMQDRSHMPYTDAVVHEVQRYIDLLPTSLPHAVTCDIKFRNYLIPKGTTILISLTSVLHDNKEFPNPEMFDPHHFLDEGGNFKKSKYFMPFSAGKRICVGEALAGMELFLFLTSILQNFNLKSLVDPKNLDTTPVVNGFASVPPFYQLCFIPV
T1 sequence (P08684 whole entry): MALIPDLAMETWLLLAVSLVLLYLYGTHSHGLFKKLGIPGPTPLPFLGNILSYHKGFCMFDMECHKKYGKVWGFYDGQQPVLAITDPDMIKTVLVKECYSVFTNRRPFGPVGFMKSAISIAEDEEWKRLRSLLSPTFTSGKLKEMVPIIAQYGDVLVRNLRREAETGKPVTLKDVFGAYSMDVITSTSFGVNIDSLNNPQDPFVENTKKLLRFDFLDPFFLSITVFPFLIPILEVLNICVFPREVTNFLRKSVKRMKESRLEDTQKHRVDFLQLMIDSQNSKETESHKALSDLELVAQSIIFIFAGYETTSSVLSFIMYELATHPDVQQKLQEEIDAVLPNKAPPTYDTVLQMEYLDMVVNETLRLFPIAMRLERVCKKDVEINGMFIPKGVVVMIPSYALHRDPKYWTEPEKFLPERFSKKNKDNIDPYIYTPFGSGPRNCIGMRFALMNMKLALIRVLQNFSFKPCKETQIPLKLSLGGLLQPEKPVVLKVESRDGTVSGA
T3 sequence (P10635 whole entry): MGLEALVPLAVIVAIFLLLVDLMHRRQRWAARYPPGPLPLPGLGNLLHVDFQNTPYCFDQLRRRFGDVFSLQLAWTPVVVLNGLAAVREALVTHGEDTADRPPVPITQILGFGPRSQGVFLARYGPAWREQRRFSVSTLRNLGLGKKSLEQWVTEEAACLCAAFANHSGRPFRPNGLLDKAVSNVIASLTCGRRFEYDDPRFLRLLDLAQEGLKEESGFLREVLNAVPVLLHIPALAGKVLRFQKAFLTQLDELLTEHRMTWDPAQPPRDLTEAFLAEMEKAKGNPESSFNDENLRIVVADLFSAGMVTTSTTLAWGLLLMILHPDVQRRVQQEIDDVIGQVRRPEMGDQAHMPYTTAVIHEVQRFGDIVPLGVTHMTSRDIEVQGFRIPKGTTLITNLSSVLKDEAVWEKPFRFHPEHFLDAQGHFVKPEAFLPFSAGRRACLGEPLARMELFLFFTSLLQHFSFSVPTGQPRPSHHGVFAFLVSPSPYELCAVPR

In the case of `CC1(c2ccc(-c3[nH]c4cc(F)cc5c4c3CONC5=O)cc2)CCCN1` (stereo not shown) [Example 25_A], the IC50 in assay [1] is greater than 10 µM; against CYP3A4-M, 32.9 µM; against CYP1A2, greater than 50 µM; against CYP2D6 it was 11.6 µM; at CYP2C9 it was greater than 50 µM; against CYP2C19, 8.33 µM.
Consider `CC1(c2ccc(-c3[nH]c4cc(F)cc5c4c3CONC5=O)cc2F)CCCN1` (single isomer, unassigned) [Example 26_A], for which the IC50 is greater than 10 µM in assay [1]; 14.1 µM on CYP3A4-M; greater than 50 µM against CYP1A2; 20.2 µM against CYP2D6; 49.7 µM on CYP2C9; 3.31 µM against CYP2C19.
`O=C1NOCc2c(-c3ccc(C4CCCN4)c(F)c3)[nH]c3cccc1c23` (stereo not shown) [Example 11_A]: the IC50 in assay [1] was greater than 10 µM; on CYP3A4-M, 35 µM; against CYP1A2, greater than 50 µM; against CYP2D6, 19.2 µM; against CYP2C9, greater than 50 µM; against CYP2C19, 15.5 µM.
Turning to `O=C1NOCc2c(-c3ccc(C4CCCN4)cc3)[nH]c3cc(F)cc1c23` (single isomer, unassigned) [Example 24_A], the IC50 in assay [1] was greater than 10 µM; on CYP3A4-M it was greater than 50 µM; against CYP1A2, 29.5 µM; against CYP2D6, 6.98 µM; at CYP2C9 it was greater than 50 µM; against CYP2C19 it was 17.2 µM.
For the compound `CC1(c2ccc(-c3[nH]c4cccc5c4c3CONC5=O)cc2)CCCN1` (stereo not shown) [Example 6_A], the half-maximal inhibitory concentration (IC50) in assay [1] was greater than 10 µM.
